Data reported in PubChem BioAssay (NCI).
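A five-concentration, 48-hour dose response in 96-well plates underlies each endpoint, interpolated linearly between surrounding concentrations. At the TGI there is no net growth.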

What was measured:
Assay in all cases: NCI-60 cell line screen, 48 h
HT29 colon = tested on: HT29 colon
MDA-N = tested on: MDA-N
SW-620 colon = tested on: SW-620 colon
A498 renal = tested on: A498 renal
T-47D breast = tested on: T-47D breast
MDA-MB-435 = tested on: MDA-MB-435
HL-60(TB) leukemia = tested on: HL-60(TB) leukemia
DU-145 prostate = tested on: DU-145 prostate
MOLT-4 leukemia = tested on: MOLT-4 leukemia
SK-OV-3 ovarian = tested on: SK-OV-3 ovarian
LOX IMVI melanoma = tested on: LOX IMVI melanoma
MDA-MB-231 breast = tested on: MDA-MB-231 breast
A549 NSCLC = tested on: A549 NSCLC

Row | Structure (SMILES) | TGI (HT29 colon) [µM] | TGI (MDA-N) [µM] | TGI (SW-620 colon) [µM] | TGI (A498 renal) [µM] | TGI (T-47D breast) [µM] | TGI (MDA-MB-435) [µM] | TGI (HL-60(TB) leukemia) [µM] | TGI (DU-145 prostate) [µM] | TGI (MOLT-4 leukemia) [µM] | TGI (SK-OV-3 ovarian) [µM] | TGI (LOX IMVI melanoma) [µM] | TGI (MDA-MB-231 breast) [µM] | TGI (A549 NSCLC) [µM]
1 | O=C1CC(O)c2cscc21 (stereo unspecified) | > 100 | > 100 | > 100 | > 100 | > 100 | > 100 | > 100 | > 100 | > 100 | > 100 | > 100 | > 100 | –
2 | CCN(/C=C1/C(=O)C(c2ccccc2)N(c2ccccc2)C1=O)CC (stereo unspecified) | > 10 | > 10 | > 10 | > 10 | > 10 | > 10 | > 10 | > 10 | > 10 | > 10 | > 10 | > 10 | > 10
3 | O=C(c1ccc(Cl)cc1)N(C(=O)N1CCCCC1)c1ccccc1 | > 100 | > 100 | > 100 | > 100 | 89 | > 100 | > 100 | > 100 | 72 | > 100 | > 100 | > 100 | –
4 | CCOC(=O)c1c(NC(=O)c2ccccc2)c(C#N)c2n1CCCCC2 | > 100 | > 100 | – | – | > 100 | > 100 | > 100 | > 100 | > 100 | > 100 | > 100 | > 100 | > 100
5 | Cc1nc2sc3cccc(Cl)c3n2c(=O)c1N=Nc1ccc(Cl)cc1 | > 100 | > 100 | > 100 | 67.6 | > 100 | > 100 | > 100 | > 100 | > 100 | > 100 | > 100 | > 100 | > 100
6 | CCOc1cnc(C(O)(c2ccccc2)c2ccccc2)o1 | > 100 | > 100 | > 100 | > 100 | > 100 | > 100 | > 100 | > 100 | > 100 | > 100 | > 100 | > 100 | > 100
7 | COC(=O)C1CCC(=O)N1CN(C(C)=O)c1cccc(O)c1 (stereo unspecified) | > 100 | > 100 | > 100 | > 100 | > 100 | > 100 | > 100 | > 100 | > 100 | > 100 | > 100 | > 100 | > 100
8 | Cc1cccc2sc(NC(=O)NS(=O)(=O)n3cnc4ccccc43)nc12 | > 100 | > 100 | > 100 | 72.3 | 62.6 | > 100 | > 100 | > 100 | 88 | > 100 | – | 93.3 | > 100
9 | CC(C)C(Cl)CCC(C)(Cl)C(=O)CBr (stereo unspecified) | 11.6 | 7.25 | 5.65 | 30.3 | 6.27 | 14 | > 100 | 36.7 | – | 39.1 | 2.36 | 21.5 | 53.4
10 | COC(=O)/C=C(\C(=O)OC)c1cc(C)c2cc(C(C)C)ccc(C)c1-2 | 26.7 | 46.3 | > 100 | > 100 | > 100 | > 100 | > 100 | > 100 | > 100 | > 100 | > 100 | > 100 | > 100
11 | CCN(CC)CCNc1ccc([N+](=O)[O-])c2nc3ccc(OC)cc3c(NCCN(CC)CC)c12 | 2.63 | 2.39 | 2.51 | 4.05 | > 10 | > 4.78 | 2.53 | > 7.37 | > 3.13 | > 10 | 2.43 | 2.45 | 3.4
12 | Cc1ccc(S[C@@](C=O)(NC(=O)OCc2ccccc2)C(F)(F)F)cc1 | 37.9 | 58.5 | 66.9 | > 100 | 71 | 86.3 | 41.8 | 47.4 | 52 | > 100 | 48.8 | 58.7 | 88.3
13 | Cc1nc2c(sc3nc4c(cc32)CCC4)c(=O)o1 | > 100 | > 100 | > 100 | > 100 | > 100 | 99.3 | > 100 | > 100 | > 100 | > 100 | > 100 | > 100 | > 100
14 | COC(CN(C)C(=S)Nc1cccc2ccccc12)OC | > 10 | > 10 | > 10 | > 10 | > 10 | > 10 | > 10 | > 10 | > 10 | > 10 | > 10 | > 10 | > 10
15 | Cc1ccc(N=N/C(=N/NC(=O)c2ccccc2)c2ccc(N(CCC#N)CCC#N)cc2C)cc1 | 53.7 | > 100 | – | 88.1 | > 100 | > 100 | > 100 | > 100 | > 100 | > 100 | – | > 100 | > 100
16 | COC(=O)[C@@H]1CO[C@H](C(C)(C)C)N1C(=O)N1C=CC(=O)C[C@H]1C | > 100 | > 100 | > 100 | > 100 | > 100 | > 100 | > 100 | > 100 | – | > 100 | > 100 | > 100 | > 100
17 | CC(=O)c1ccc(N=NN2CCCC2)cc1 | – | > 100 | > 100 | 37.3 | > 100 | > 100 | > 100 | > 100 | > 100 | > 100 | > 100 | > 100 | –
18 | O=c1c(-c2ccccc2)nnc2n(Cc3ccccc3)c3ccccc3n12 | > 100 | > 100 | > 100 | > 100 | > 100 | > 100 | > 100 | > 100 | > 100 | – | > 100 | > 100 | > 100

Row | Structure (SMILES) | TGI (HT29 colon) [µM] | TGI (MDA-N) [µM] | TGI (SW-620 colon) [µM] | TGI (A498 renal) [µM] | TGI (T-47D breast) [µM] | TGI (MDA-MB-435) [µM] | TGI (HL-60(TB) leukemia) [µM] | TGI (DU-145 prostate) [µM] | TGI (MOLT-4 leukemia) [µM] | TGI (SK-OV-3 ovarian) [µM] | TGI (LOX IMVI melanoma) [µM] | TGI (MDA-MB-231 breast) [µM] | TGI (A549 NSCLC) [µM]
19 | COc1ccccc1C1c2cc3c(cc2OC2(OC)COC(=O)C12)OCO3 (stereo unspecified) | 22.9 | 5.51 | > 100 | 54.4 | > 100 | 5.74 | 18.5 | 69.4 | > 46.2 | 70.1 | 67.1 | > 100 | > 100
20 | CCCCCCCCCCCCCCCCCCNc1ccn(C2OC(COP(=O)(O)OCC3OC(n4ccc(N)nc4=O)C(O)C3O)C(O)C2O)c(=O)n1 (stereo unspecified) | > 100 | > 100 | > 100 | > 100 | > 100 | > 100 | > 100 | > 100 | > 70.6 | > 100 | 49.4 | > 100 | > 100
21 | O=[N+]([O-])c1ccc(/C=N/Nc2nc3ccccc3[nH]2)o1 | 68 | 31.7 | 28.3 | – | 35.8 | 18 | 11.4 | 27.1 | 27.3 | > 100 | 35 | 70.9 | 30.4
22 | CN=c1sc2c(n1C)C(=O)c1ccccc1C2=O | 10.4 | 0.467 | 4.81 | 30.1 | 17.5 | 0.374 | – | 3.12 | 26.5 | 77.9 | 10.4 | 33.7 | 3.94
23 | Cc1cc(N(CCC#N)CCC#N)ccc1/C(N=Nc1ccccc1)=N\NC(=O)c1cc(Cl)ccc1O | 35.4 | > 100 | – | > 100 | 55.9 | > 100 | > 100 | > 100 | 92.6 | > 100 | – | 83 | > 100
24 | S=C1Cc2c(-c3ccccc3)cc(-c3cccc(Cl)c3)nc2-c2ccccc2N1 | 11.5 | 26.5 | 15.4 | 10.4 | 21.6 | > 60.9 | 54.9 | 38.9 | > 90.2 | 17.4 | 13.7 | 5.66 | 22.5
25 | COC1(OC)c2occc2C(=N)c2ccc(=O)oc21 | > 100 | > 100 | > 100 | > 100 | > 100 | > 100 | > 100 | > 100 | > 100 | > 100 | > 100 | > 100 | > 100
26 | [B]C(=O)NC(CC(C)C)C(=O)NCC(=O)NC1c2ccsc2C(=O)C1O (stereo unspecified) (tested in a mixture with another compound) | > 100 | > 100 | > 100 | > 100 | > 100 | > 100 | > 100 | > 100 | > 100 | > 100 | > 100 | > 100 | > 100
27 | Cc1[nH]n(-c2nc3c(c(=O)[nH]2)CCCC3)c(=O)c1CCO | > 100 | > 100 | > 100 | > 100 | > 100 | > 100 | > 100 | > 100 | > 100 | > 100 | > 100 | > 100 | > 100
28 | C[C@@H](CC(=O)OCc1ccccc1)OC1OC(COC(=O)C(C)(C)C)C(OC(=O)C(C)(C)C)C(OC(=O)C(C)(C)C)C1OC(=O)C(C)(C)C (stereo partly specified) | > 100 | > 100 | > 100 | > 100 | > 100 | > 100 | > 100 | > 100 | > 100 | > 100 | > 100 | > 100 | > 100
29 | Oc1c(N2CCCCC2)cc(-c2cc(N3CCCCC3)c(O)c3ccccc23)c2ccccc12 | 55.5 | 33.5 | 94.2 | – | > 100 | 23.2 | > 100 | 49 | 79.8 | > 100 | 73.2 | > 100 | > 100
30 | Cc1c(C)c2c(c(N)c1C#N)C(=O)N(Cc1ccc(S(N)(=O)=O)cc1)C2=O | > 100 | > 100 | > 100 | > 70.6 | > 59.2 | > 100 | > 100 | > 75.8 | > 100 | > 100 | > 100 | 73.4 | > 100
31 | O=C(NCCN(CCNC(=O)c1cccc(O)c1O)CCNC(=O)c1cccc(O)c1O)c1cccc(O)c1O | > 100 | > 100 | > 100 | > 100 | > 89.7 | > 100 | > 100 | > 78.9 | – | > 100 | > 51.5 | > 100 | > 100
32 | O=S(=O)(/N=C(\NO)Nc1ccc(Cl)cc1)c1cc(C(F)(F)F)cc(C(F)(F)F)c1 | 34.3 | 36.1 | > 100 | – | 67.2 | 37.6 | 79 | 44.1 | 70.2 | 35.2 | 34.2 | 37.2 | 34.5
33 | C=C1CC[C@@H](CCC2CCC3(OC2)O[C@]2(O)CC[C@@]3(C)OC2(C)C)C(C)(C)[C@H]1C/C=C1\CCOC1=O (stereo partly specified) | 31.1 | > 100 | > 100 | 34.9 | 90.3 | 86.4 | 17 | > 100 | 23.9 | > 100 | 20 | > 80.4 | > 100
34 | NC1=NC2(COC(c3ccccc3)(c3ccccc3)c3ccccc3)OC(COC(c3ccccc3)(c3ccccc3)c3ccccc3)C(O)C2O1 (stereo unspecified) | > 100 | > 100 | > 100 | > 100 | > 100 | > 100 | > 100 | > 100 | > 100 | > 100 | > 100 | > 100 | > 100
35 | O=C(Nn1c(-c2ccccc2)nc2ccccc2c1=O)c1ccc(Cl)cc1 | > 100 | > 100 | > 100 | > 100 | > 100 | > 100 | > 100 | > 100 | > 100 | > 100 | > 100 | > 100 | > 100
